Data on 15 molecules can be found in patent publication US6852731B2, “Antiviral compounds” (Pfizer, priority 2002, dated 2005).

Molecule `CN(Cc1sc2c(=O)c(C(=O)NCc3ccc(Cl)cc3)cn(C)c2c1COCC[Si](C)(C)C)CC(O)c1cnccn1` (stereo not drawn) returned a melting point of 154.9 to 155.5 °C.
In turn, `COCCOCc1c(CN(C)CC(O)c2cccnc2)sc2c(=O)c(C(=O)NCc3ccc(Cl)cc3)cn(C)c12` (stereo not drawn) [Example 72, N-(4-Chlorobenzyl)-2-{[(2-hydroxy-2-pyridin-3-ylethyl)(methyl)amino]methyl}-3-[(2-methoxyethoxy)methyl]-4-methyl-7-oxo-4,7-dihydrothieno[3,2-b]pyridine-6-carboxamide] showed a melting point of 129 to 132 °C.
`COCCOCc1c(CN(C)CC(O)c2cccc(OC)c2)sc2c(=O)c(C(=O)NCc3ccc(Cl)cc3)cn(C)c12` (stereo not drawn) [Example 73, N-(4-Chlorobenzyl)-2-{[[2-hydroxy-2-(3-methoxyphenyl)ethyl](methyl)amino]methyl}-3-[(2-methoxyethoxy)methyl]-4-methyl-7-oxo-4,7-dihydrothieno[3,2-b]pyridine-6-carboxamide] showed a melting point of 135 to 138 °C.
The same measure for `COCCOCc1c(CN(C)C[C@@H](O)c2ccco2)sc2c(=O)c(C(=O)NCc3ccc(Cl)cc3)cn(C)c12` [Example 74, N-(4-Chlorobenzyl)-2-{[[(2R)-2-(2-furyl)-2-hydroxyethyl](methyl)amino]methyl}-3-[(2-methoxyethoxy)methyl]-4-methyl-7-oxo-4,7-dihydrothieno[3,2-b]pyridine-6-carboxamide]: 146 to 147 °C; for `COCCOCc1c(CN(C)CC(O)c2c[nH]c3ccccc23)sc2c(=O)c(C(=O)NCc3ccc(Cl)cc3)cn(C)c12` (stereo not drawn) [Example 75, N-(4-Chlorobenzyl)-2-{[[2-hydroxy-2-(1H-indol-3-yl)ethyl](methyl)amino]methyl}-3-[(2-methoxyethoxy)methyl]-4-methyl-7-oxo-4,7-dihydrothieno[3,2-b]pyridine-6-carboxamide]: 167 to 169 °C; for `COCCOCc1c(CN(C)CC(O)c2ccccn2)sc2c(=O)c(C(=O)NCc3ccc(Cl)cc3)cn(C)c12` (stereo not drawn) [Example 76, N-(4-Chlorobenzyl)-2-{[(2-hydroxy-2-pyridin-2-ylethyl)(methyl)amino]methyl}-3-[(2-methoxyethoxy)methyl]-4-methyl-7-oxo-4,7-dihydrothieno[3,2-b]pyridine-6-carboxamide]: 150.5 to 152 °C.
Molecule `COCCOCc1c(CN(C)CC(O)c2ncccn2)sc2c(=O)c(C(=O)NCc3ccc(Cl)cc3)cn(C)c12` (stereo not drawn) [Example 77, N-(4-Chlorobenzyl)-2-{[(2-hydroxy-2-pyrimidin-2-ylethyl)(methyl)amino]methyl}-3-[(2-methoxyethoxy)methyl]-4-methyl-7-oxo-4,7-dihydrothieno[3,2-b]pyridine-6-carboxamide] gave a melting point of 146.5 to 147.5 °C.
`COCCOCc1c(CN(C)CC(O)c2ccc(C#N)s2)sc2c(=O)c(C(=O)NCc3ccc(Cl)cc3)cn(C)c12` (stereo not drawn) [Example 80, N-(4-Chlorobenzyl)-2-{[[2-(5-cyanothien-2-yl)-2-hydroxyethyl](methyl)amino]methyl}-3-[(2-methoxyethoxy)methyl]-4-methyl-7-oxo-4,7-dihydrothieno[3,2-b]pyridine-6-carboxamide] registered a melting point of 163 to 164 °C.
Regarding `C=CCOCc1c(CN(C)C[C@@H](O)c2ccccn2)sc2c(=O)c(C(=O)NCc3ccc(Cl)cc3)cn(C)c12` [Example 81, 3-[(Allyloxy)methyl]-N-(4-chlorobenzyl)-2-{[[(2R)-2-hydroxy-2-pyridin-2-ylethyl](methyl)amino]methyl}-4-methyl-7-oxo-4,7-dihydrothieno[3,2-b]pyridine-6-carboxamide], the melting point was in the range of 125 to 127 °C.
The molecule `CN(Cc1sc2c(=O)c(C(=O)NCc3ccc(Cl)cc3)cn(C)c2c1CO)CC(O)c1cnccn1` (stereo not drawn) [Example 84, N-(4-Chlorobenzyl)-3-(hydroxymethyl)-2-{[(2-hydroxy-2-pyrazin-2-ylethyl)(methyl)amino]methyl}-4-methyl-7-oxo-4,7-dihydrothieno[3,2-b]pyridine-6-carboxamide] returned a melting point of 211 to 213 °C.
The same measure for `CN(Cc1sc2c(=O)c(C(=O)NCc3ccc(Cl)cc3)cn(C)c2c1CO)CC(O)c1ccc(C#N)s1` (stereo not drawn) [Example 85, N-(4-Chlorobenzyl)-2-{[[2-(5-cyanothien-2-yl)-2-hydroxyethyl](methyl)amino]methyl}-3-(hydroxymethyl)-4-methyl-7-oxo-4,7-dihydrothieno[3,2-b]pyridine-6-carboxamide]: 188 to 190 °C.
In the case of `COc1cccc(C(O)CN(C)Cc2sc3c(=O)c(C(=O)NCc4ccc(Cl)cc4)cn(C)c3c2CO)c1` (stereo not drawn) [Example 86, N-(4-Chlorobenzyl)-2-{[[2-hydroxy-2-(3-methoxyphenyl)ethyl](methyl)amino]methyl}-3-(hydroxymethyl)-4-methyl-7-oxo-4,7-dihydrothieno[3,2-b]pyridine-6-carboxamide], the melting point fell in the range of 165 to 168 °C.
For the molecule `CN(Cc1sc2c(=O)c(C(=O)NCc3ccc(Cl)cc3)cn(C)c2c1CO)CC(O)c1ccc2ccccc2n1` (stereo not drawn) [Example 89, N-(4-Chlorobenzyl)-3-(hydroxymethyl)-2-{[(2-hydroxy-2-quinolin-2-ylethyl)(methyl)amino]methyl}-4-methyl-7-oxo-4,7-dihydrothieno[3,2-b]pyridine-6-carboxamide], the melting point was in the range of 196 to 198 °C.
The molecule `CN(Cc1sc2c(=O)c(C(=O)NCc3ccc(Cl)cc3)cn(C)c2c1CN)C[C@@H](O)c1ccccn1` [Example 91, 3-(Aminomethyl)-N-(4-chlorobenzyl)-2-{[[(2R)-2-hydroxy-2-pyridin-2-ylethyl](methyl)amino]methyl}-4-methyl-7-oxo-4,7-dihydrothieno[3,2-b]pyridine-6-carboxamide] came in with a melting point of 144 to 148 °C.
On to `CN(Cc1sc2c(=O)c(C(=O)NCc3ccc(Cl)cc3)cn(C)c2c1CNS(C)(=O)=O)C[C@@H](O)c1ccccn1` [Example 92, N-(4-Chlorobenzyl)-2-{[[(2R)-2-hydroxy-2-pyridin-2-ylethyl](methyl)amino]methyl}-4-methyl-3-{[(methylsulfonyl)amino]methyl}-7oxo-4,7-dihydrothieno[3,2-b]pyridine-6-carboxamide], for which the melting point was 171 to 177 °C (dec.).

In general, melting point refers to the temperature of the solid-liquid transition.
